# Measurements published in US8835378B2, “Multi-domain amphipathic helical peptides and methods of their use” (The United States of America as represented by the …, priority 2004, dated 2014).
# Where a SMILES comes first, the peptide text is derived from it.
# Columns and labels:
# red blood cells = experiment: Red blood cell hemolysis assay; assay type: cell-based; settings: 1 hour at 37° C.
# Description: Red blood cells were incubated with the indicated concentration of the peptides for 1 hour at 37° C. Results are expressed as the mean of triplicates±1 SD.
# Approximately 25% of the red blood cells were lysed after 1 hour at the maximum dose tested (FIG. 9). Overall, the modified peptides containing the Ala substitutions were less cytotoxic, and the degree of cytotoxicity closely correlated with the number of Ala substitutions.
# [1] = test system: HeLa cells stably transfected with human ABCA1 cDNA (ABCA1 cells); experiment: Cholesterol and phospholipid efflux from ABCA1 transfected cells; assay type: cell-based; settings: for cholesterol efflux to other detergents compared with taurodeoxycholate: sublytic concentrations, ABCA1 cells and control cells; for cholesterol and phospholipid efflux from ABCA1 cells (in words): 18 hours
# Description: (§1) Percentage efflux was calculated after subtracting the radioactive counts in the blank media (αMEM plus 1 mg/ml of BSA), and expressed as the percent of total radioactive counts removed from the cells during the efflux period.
# (§2) Cell fixation was performed by a 10 minute treatment with 3% paraformaldehyde in phosphate buffered saline (PBS), followed by three washes with blank media. Lactate dehydrogenase (LDH) release from cells into the media was measured enzymatically (Roche Diagnostics, Indianapolis, Ind.) and expressed, after subtraction of LDH released into blank media, as the percentage of total cell LDH. Total cell LDH was determined after cell solubilization with 1% Triton X-100.
# [2] = test system: ABCA1 cells and control cells; experiment: Cell morphology by light microscopy during efflux experiments; assay type: cell-based, human; settings: light microscopy, during efflux experiments
# [3] = test system: HeLa cells transfected with only a hygromycin-resistant control plasmid (control cells); experiment: Cholesterol and phospholipid efflux from control cells; assay type: cell-based, human; settings: for cholesterol and phospholipid efflux from control cells (in words): 18 hours
# Description: as §1, §2
compound,measurement,setting,value
CC(C)C[C@H](NC(=O)[C@H](Cc1c[nH]c2ccccc12)NC(=O)[C@H](CC(=O)O)NC(=O)[C@@H]1CCCN1C(=O)[C@H](Cc1ccccc1)NC(=O)[C@H](C)NC(=O)[C@H](CCC(=O)O)NC(=O)[C@H](CCCCN)NC(=O)[C@H](CC(C)C)NC(=O)[C@H](CCCCN)NC(=O)[C@H](CCC(=O)O)NC(=O)[C@H](C)NC(=O)[C@@H](NC(=O)[C@H](CCCCN)NC(=O)[C@H](CC(=O)O)NC(=O)[C@H](Cc1ccc(O)cc1)NC(=O)[C@H](Cc1ccccc1)NC(=O)[C@H](C)NC(=O)[C@H](CCCCN)NC(=O)[C@H](CC(C)C)NC(=O)[C@H](Cc1c[nH]c2ccccc12)NC(=O)[C@@H](N)CC(=O)O)C(C)C)C(=O)N[C@@H](CCCCN)C(=O)N[C@@H](C)C(=O)N[C@@H](Cc1ccccc1)C(=O)N[C@@H](Cc1ccc(O)cc1)C(=O)N[C@@H](CC(=O)O)C(=O)N[C@@H](CCCCN)C(=O)N[C@H](C(=O)N[C@@H](C)C(=O)N[C@@H](CCC(=O)O)C(=O)N[C@@H](CCCCN)C(=O)N[C@@H](C)C(=O)N[C@@H](CCCCN)C(=O)N[C@@H](CCC(=O)O)C(=O)N[C@@H](C)C(=O)N[C@@H](Cc1ccccc1)C(=O)O)C(C)C [1A] (H-DWLKAFYDKVAEKLKEAFPDWLKAFYDKVAEKAKEAF-OH; N-terminus and C-terminus assumed),hemolysis / cytotoxicity to red blood cells (in words),red blood cells,moderate degree of hemolysis
CC(C)C[C@H](NC(=O)[C@H](Cc1c[nH]c2ccccc12)NC(=O)[C@H](CC(=O)O)NC(=O)[C@@H]1CCCN1C(=O)[C@H](Cc1ccccc1)NC(=O)[C@H](C)NC(=O)[C@H](CCC(=O)O)NC(=O)[C@H](CCCCN)NC(=O)[C@H](CC(C)C)NC(=O)[C@H](CCCCN)NC(=O)[C@H](CCC(=O)O)NC(=O)[C@H](C)NC(=O)[C@@H](NC(=O)[C@H](CCCCN)NC(=O)[C@H](CC(=O)O)NC(=O)[C@H](Cc1ccc(O)cc1)NC(=O)[C@H](Cc1ccccc1)NC(=O)[C@H](C)NC(=O)[C@H](CCCCN)NC(=O)[C@H](CC(C)C)NC(=O)[C@H](Cc1c[nH]c2ccccc12)NC(=O)[C@@H](N)CC(=O)O)C(C)C)C(=O)N[C@@H](CCCCN)C(=O)N[C@@H](C)C(=O)N[C@@H](Cc1ccccc1)C(=O)N[C@@H](Cc1ccc(O)cc1)C(=O)N[C@@H](CC(=O)O)C(=O)N[C@@H](CCCCN)C(=O)N[C@H](C(=O)N[C@@H](C)C(=O)N[C@@H](CCC(=O)O)C(=O)N[C@@H](CCCCN)C(=O)N[C@@H](C)C(=O)N[C@@H](CCCCN)C(=O)N[C@@H](CCC(=O)O)C(=O)N[C@@H](C)C(=O)N[C@@H](C)C(=O)O)C(C)C [2A] (H-DWLKAFYDKVAEKLKEAFPDWLKAFYDKVAEKAKEAA-OH; N-terminus and C-terminus assumed),hemolysis / cytotoxicity to red blood cells (in words),red blood cells,moderate degree of hemolysis
CC(C)C[C@H](NC(=O)[C@H](Cc1c[nH]c2ccccc12)NC(=O)[C@H](CC(=O)O)NC(=O)[C@@H]1CCCN1C(=O)[C@H](Cc1ccccc1)NC(=O)[C@H](C)NC(=O)[C@H](CCC(=O)O)NC(=O)[C@H](CCCCN)NC(=O)[C@H](CC(C)C)NC(=O)[C@H](CCCCN)NC(=O)[C@H](CCC(=O)O)NC(=O)[C@H](C)NC(=O)[C@@H](NC(=O)[C@H](CCCCN)NC(=O)[C@H](CC(=O)O)NC(=O)[C@H](Cc1ccc(O)cc1)NC(=O)[C@H](Cc1ccccc1)NC(=O)[C@H](C)NC(=O)[C@H](CCCCN)NC(=O)[C@H](CC(C)C)NC(=O)[C@H](Cc1c[nH]c2ccccc12)NC(=O)[C@@H](N)CC(=O)O)C(C)C)C(=O)N[C@@H](CCCCN)C(=O)N[C@@H](C)C(=O)N[C@@H](C)C(=O)N[C@@H](Cc1ccc(O)cc1)C(=O)N[C@@H](CC(=O)O)C(=O)N[C@@H](CCCCN)C(=O)N[C@H](C(=O)N[C@@H](C)C(=O)N[C@@H](CCC(=O)O)C(=O)N[C@@H](CCCCN)C(=O)N[C@@H](C)C(=O)N[C@@H](CCCCN)C(=O)N[C@@H](CCC(=O)O)C(=O)N[C@@H](C)C(=O)N[C@@H](C)C(=O)O)C(C)C [3A] (H-DWLKAFYDKVAEKLKEAFPDWLKAAYDKVAEKAKEAA-OH; N-terminus and C-terminus assumed),hemolysis / cytotoxicity to red blood cells (in words),red blood cells,moderate degree of hemolysis
CC(C)C[C@H](NC(=O)[C@H](Cc1c[nH]c2ccccc12)NC(=O)[C@H](CC(=O)O)NC(=O)[C@@H]1CCCN1C(=O)[C@H](Cc1ccccc1)NC(=O)[C@H](C)NC(=O)[C@H](CCC(=O)O)NC(=O)[C@H](CCCCN)NC(=O)[C@H](CC(C)C)NC(=O)[C@H](CCCCN)NC(=O)[C@H](CCC(=O)O)NC(=O)[C@H](C)NC(=O)[C@@H](NC(=O)[C@H](CCCCN)NC(=O)[C@H](CC(=O)O)NC(=O)[C@H](Cc1ccc(O)cc1)NC(=O)[C@H](Cc1ccccc1)NC(=O)[C@H](C)NC(=O)[C@H](CCCCN)NC(=O)[C@H](CC(C)C)NC(=O)[C@H](Cc1c[nH]c2ccccc12)NC(=O)[C@@H](N)CC(=O)O)C(C)C)C(=O)N[C@@H](CCCCN)C(=O)N[C@@H](C)C(=O)N[C@@H](C)C(=O)N[C@@H](Cc1ccc(O)cc1)C(=O)N[C@@H](CC(=O)O)C(=O)N[C@@H](CCCCN)C(=O)N[C@@H](C)C(=O)N[C@@H](C)C(=O)N[C@@H](CCC(=O)O)C(=O)N[C@@H](CCCCN)C(=O)N[C@@H](C)C(=O)N[C@@H](CCCCN)C(=O)N[C@@H](CCC(=O)O)C(=O)N[C@@H](C)C(=O)N[C@@H](C)C(=O)O [4A] (H-DWLKAFYDKVAEKLKEAFPDWLKAAYDKAAEKAKEAA-OH; N-terminus and C-terminus assumed),hemolysis / cytotoxicity to red blood cells (in words),red blood cells,no appreciable hemolysis
CC(C)C[C@H](NC(=O)[C@H](CCCCN)NC(=O)[C@H](CCC(=O)O)NC(=O)[C@H](C)NC(=O)[C@@H](NC(=O)[C@H](CCCCN)NC(=O)[C@H](CC(=O)O)NC(=O)[C@H](Cc1ccc(O)cc1)NC(=O)[C@H](Cc1ccccc1)NC(=O)[C@H](C)NC(=O)[C@H](CCCCN)NC(=O)[C@H](CC(C)C)NC(=O)[C@H](Cc1c[nH]c2ccccc12)NC(=O)[C@@H](N)CC(=O)O)C(C)C)C(=O)N[C@@H](CCCCN)C(=O)N[C@@H](CCC(=O)O)C(=O)N[C@@H](C)C(=O)N[C@@H](Cc1ccccc1)C(=O)N1CCC[C@H]1C(=O)N[C@@H](CC(=O)O)C(=O)N[C@@H](Cc1c[nH]c2ccccc12)C(=O)N[C@@H](C)C(=O)N[C@@H](CCCCN)C(=O)N[C@@H](C)C(=O)N[C@@H](C)C(=O)N[C@@H](Cc1ccc(O)cc1)C(=O)N[C@@H](CC(=O)O)C(=O)N[C@@H](CCCCN)C(=O)N[C@@H](C)C(=O)N[C@@H](C)C(=O)N[C@@H](CCC(=O)O)C(=O)N[C@@H](CCCCN)C(=O)N[C@@H](C)C(=O)N[C@@H](CCCCN)C(=O)N[C@@H](CCC(=O)O)C(=O)N[C@@H](C)C(=O)N[C@@H](C)C(=O)O [5A] (H-DWLKAFYDKVAEKLKEAFPDWAKAAYDKAAEKAKEAA-OH; N-terminus and C-terminus assumed),hemolysis / cytotoxicity to red blood cells (in words),red blood cells,no appreciable hemolysis
C[C@H](CCC(=O)NCCC[N+](C)(C)CCCS(=O)(=O)[O-])[C@H]1CC[C@H]2[C@@H]3[C@H](O)C[C@@H]4C[C@H](O)CC[C@]4(C)[C@H]3C[C@H](O)[C@]12C [CHAPS],cholesterol efflux to other detergents compared with taurodeoxycholate,[1],Nearly identical results
"C[C@H](CCC(=O)NCCS(=O)(=O)O)[C@H]1CC[C@H]2[C@@H]3CC[C@@H]4C[C@H](O)CC[C@]4(C)[C@H]3C[C@H](O)[C@]12C [taurodeoxycholate, reference compound]",effect on cell morphology,[2],did not alter the morphology of the cells
same,cholesterol efflux from ABCA1 cells to detergent after fixation,"[1]; 0.02%, 1 hour, after fixation with 3% paraformaldehyde",slightly increased after fixation
same,cholesterol efflux from ABCA1 cells to detergent,"[1]; 0.02%, 1 hour, before fixation",small amount of cholesterol efflux
same,cholesterol efflux from control cells to detergent,"[3]; 0.02%, 1 hour",Approximately the same amount of cholesterol efflux
"DWLKAFYDKVAEKLKEAFPDWLKAFYDKVA EKLKEAF [37pA, reference compound]",cholesterol and phospholipid efflux from ABCA1 cells (in words),[1],promoted ABCA1-mediated cholesterol efflux
same,cholesterol and phospholipid efflux from control cells (in words),[3],able to mediate cholesterol efflux from a control HeLa cell line
NP-40,cholesterol efflux to other detergents compared with taurodeoxycholate,[1],Nearly identical results
"RMRITERDDFRGQMSEITDDCPSLQDRFHLTEVHSLRVLEGS (Gamma crystalline peptide.) [contains two non-amphipathic alpha helices of approximately the same length as the helices on 37pA, reference compound]",cholesterol and phospholipid efflux from ABCA1 cells (in words),[1],completely ineffective
same,cholesterol and phospholipid efflux from control cells (in words),[3],completely ineffective
